In article PMC9503898, “Synthesis and Evaluation of Two Long-Acting SSTR2 Antagonists for Radionuclide Therapy of Neuroendocrine Tumors” (Pharmaceuticals, 2022):
Blank lines part the entries; values can stand above or below the molecule they belong to. Positions of bridges follow the written chain, without caps; N, C: chain ends. Non-standard residues stand in square brackets, D forms with d. Residues, ends and D or L forms follow the SMILES beside them. *: point of attachment. DOTA = O=C(O)CN1CCN(CC(=O)O)CCN(CC(=O)*)CCN(CC(=O)O)CC1; dPhe(4-NHCONH2) = NC(=O)Nc1ccc(C[C@@H](N)C(=O)O)cc1; Butanoyl(4-(4-MeO-phenyl)) = COc1ccc(CCCC(=O)*)cc1; Butanoyl(4-(4-I-phenyl)) = O=C(CCCc1ccc(I)cc1)*; Dihydroorotyl(S) = O=C1C[C@@H](C(=O)*)NC(=O)N1; Phe(4-Cl) = N[C@@H](Cc1ccc(Cl)cc1)C(=O)O; Phe(4-NH2) = Nc1ccc(C[C@H](N)C(=O)O)cc1

Legend:
[1] = target: T1, SSTR2 receptor (U2OS-SSTR2 cells) (Homo sapiens, UniProt P30874); assay: Competitive binding assay against [^177Lu]Lu-JR11; settings: radioligand [^177Lu]Lu-JR11 10^−9 M, unlabeled compound 10^−12 to 10^−5 M, 90 min, 37 °C, triplicate
T1 construct: expressed in transfected cells; host or cells: U2OS human osteosarcoma cells stably expressing SSTR2
T1 sequence (P30874 whole entry): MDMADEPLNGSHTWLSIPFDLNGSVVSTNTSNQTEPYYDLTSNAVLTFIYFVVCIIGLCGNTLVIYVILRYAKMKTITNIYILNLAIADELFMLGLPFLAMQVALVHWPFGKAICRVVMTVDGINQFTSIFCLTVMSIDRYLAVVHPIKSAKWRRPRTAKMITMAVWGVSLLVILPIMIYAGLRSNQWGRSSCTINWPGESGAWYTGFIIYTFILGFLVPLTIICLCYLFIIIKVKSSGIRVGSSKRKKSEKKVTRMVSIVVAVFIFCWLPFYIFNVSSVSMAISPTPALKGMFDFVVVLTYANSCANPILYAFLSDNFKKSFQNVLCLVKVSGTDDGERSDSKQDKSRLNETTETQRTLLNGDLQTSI
Protocol: Human osteosarcoma cells (U2OS) stably expressing the SSTR2 receptor were used in all in vitro cell assays. Cells were cultured in Dulbecco’s modified Eagle’s medium (DMEM) from Gibco (Paisley, UK) supplemented with 2 mM L-glutamine, 10% fetal bovine serum (FBS), 50 units/mL penicillin, and 50 μg/mL streptomycin (Sigma Aldrich; Haarlerbergweg, The Netherlands) and maintained at 37 °C and in a 5% CO2 humidified chamber. Passages were performed weekly using trypsin/EDTA (0.05%/0.02% w/v).
Competitive binding experiments against [^177Lu]Lu-JR11 were performed with 8a and 8b in U2OS-SSTR2 cells. Cells were seeded in a 24-well plate 24 h in advance (2 × 10^5 cells/well). On the day of the experiment, medium was removed, and the cells were washed once with PBS (Gibco). Then, solutions containing unlabeled compound 8a or 8b in increasing concentrations (10^−12 to 10^−5 M) in internalization medium (DMEM media, 20 mM HEPES, 1% BSA, pH 7.4) were added, followed by the addition of [^177Lu]Lu-JR11 (10^−9 M). For each concentration, experiments were performed in triplicate. Cells were incubated at 37 °C for 90 min. After incubation, medium was removed, and cells were washed once with PBS and lysed with 0.5 M sodium hydroxide (NaOH) for 10 min at rt. The lysate was transferred to counting tubes, and measurement was performed using the γ-counter.

[2] = Determination of lipophilicity (LogD7.4, shake-flask); type: physicochemical; settings: n-octanol/PBS (1:1), pH 7.4, PBS/n-octanol 1:1 (1 mL), ~1.5 MBq, gamma counter, n = 3 (triplicate), mean ± SEM, read-out: Log D7.4
Protocol: The distribution coefficient (LogD7.4) of the ^177Lu-labeled peptides was determined by the shake-flask method. For each radioligand, the experiment was performed in triplicate. The radiolabeled compound (~1.5 MBq) was added to a solution of phosphate buffered saline (PBS)/n-octanol (1 mL, v:v = 1:1) in eppendorf vials. The vials were vortexed vigorously and centrifuged at 10,000 rpm for 3 min. The n-octanol phase was separated from the aqueous phase, poured into new vials, and centrifuged for 15 min. Samples from each phase (10 μL) were measured using a gamma counter. The LogD7.4 value was calculated using the following equation: […].

Stability in mouse serum = type: in vitro ADME; settings: % intact radiolabeled ligand, ~3 MBq in 150 μL mouse serum, 37 °C, ACN protein precipitation, radio-HPLC, n = 1
Protocol: (§1) The ^177Lu-labeled compounds (~3 MBq) were incubated in PBS (300 μL) at 37 °C. The stability of the radiolabeled peptides was verified by radio-HPLC at 1, 4, and 24 h. The stability in serum was determined by incubating the radiolabeled compounds (~3 MBq) into 150 μL of mouse serum (Merck; Haarlerbergweg, The Netherlands) at 37 °C. At 1, 4, and 24 h post-incubation, the proteins were precipitated by adding an aliquot of 35 μL of the mixture to an equal volume of ACN. The vial was vortexed and centrifuged for 20 min. stability was monitored by radio-HPLC (Figures S4 and S5).

human albumin = human albumin (Homo sapiens, UniProt P02768); assay: Albumin binding properties (ultrafiltration); settings: ~1 MBq in human albumin/PBS (500 µL, v:v = 1:4), 1 h, 37 °C; Centrifree ultrafiltration 30 KDa; gamma counter; n = 3, mean ± SEM
human albumin, sequence (P02768 25-609): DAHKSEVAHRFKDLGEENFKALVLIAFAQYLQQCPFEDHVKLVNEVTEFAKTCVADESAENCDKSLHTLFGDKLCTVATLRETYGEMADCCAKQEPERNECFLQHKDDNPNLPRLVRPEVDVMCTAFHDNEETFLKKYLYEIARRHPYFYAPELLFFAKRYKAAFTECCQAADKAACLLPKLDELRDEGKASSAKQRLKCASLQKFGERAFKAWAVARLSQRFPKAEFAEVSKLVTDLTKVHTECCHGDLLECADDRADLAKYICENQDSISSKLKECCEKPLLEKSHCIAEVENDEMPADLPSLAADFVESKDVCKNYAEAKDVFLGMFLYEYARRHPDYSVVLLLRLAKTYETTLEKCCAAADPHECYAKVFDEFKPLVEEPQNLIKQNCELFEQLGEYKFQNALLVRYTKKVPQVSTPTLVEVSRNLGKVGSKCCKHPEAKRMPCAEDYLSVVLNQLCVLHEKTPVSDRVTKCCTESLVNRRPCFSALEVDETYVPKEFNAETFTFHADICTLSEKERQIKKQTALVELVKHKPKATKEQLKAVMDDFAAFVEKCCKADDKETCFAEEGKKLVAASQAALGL

[3] = system: mice bearing SSTR2-positive H69 xenografts; assay: In vivo SPECT/CT imaging; settings: H69 xenograft mice, i.v. 20 MBq/0.5 nmol, n = 4
In vivo SPECT/CT imaging = settings: mouse, H69 xenograft tumor, iv, 20 MBq/0.5 nmol per animal, total radioactivity
Stability in PBS = type: physicochemical; settings: % intact radiolabeled ligand, ~3 MBq in PBS (300 μL), 37 °C, radio-HPLC, n = 1
Protocol: as §1

- IC50 [1]: 80 ± 0.43 nM
SMILES: C[C@@H](O)[C@@H]1NC(=O)[C@H](CCCCN)NC(=O)[C@@H](Cc2ccc(NC(N)=O)cc2)NC(=O)[C@H](Cc2ccc(NC(=O)[C@@H]3CC(=O)NC(=O)N3)cc2)NC(=O)[C@H](NC(=O)[C@H](Cc2ccc(Cl)cc2)NC(=O)[C@H](CCCCNC(=O)CCCc2ccc(I)cc2)NC(=O)CN2CCN(CC(=O)O)CCN(CC(=O)O)CCN(CC(=O)O)CC2)CSSC[C@@H](C(=O)N[C@H](Cc2ccc(O)cc2)C(N)=O)NC1=O [8a, DOTA-Lys(4-(p-iodophenyl)butyryl)-Phe(4-Cl)-c[D-Cys-Aph(Hor)-D-Aph(Cbm)-Lys-Thr-Cys]-D-Tyr-NH2] ({DOTA}-K(Butanoyl(4-(4-I-phenyl)))[Phe(4-Cl)][dC][Phe(4-NH2)](Dihydroorotyl(S))[dPhe(4-NHCONH2)]KTC[dY]-NH2; disulfide 3-8)

- IC50 [1]: 130 ± 0.3 nM
SMILES: COc1ccc(CCCC(=O)NCCCC[C@H](NC(=O)CN2CCN(CC(=O)O)CCN(CC(=O)O)CCN(CC(=O)O)CC2)C(=O)N[C@@H](Cc2ccc(Cl)cc2)C(=O)N[C@@H]2CSSC[C@@H](C(=O)N[C@H](Cc3ccc(O)cc3)C(N)=O)NC(=O)[C@H]([C@@H](C)O)NC(=O)[C@H](CCCCN)NC(=O)[C@@H](Cc3ccc(NC(N)=O)cc3)NC(=O)[C@H](Cc3ccc(NC(=O)[C@@H]4CC(=O)NC(=O)N4)cc3)NC2=O)cc1 [8b, DOTA-Lys(4-(p-methoxyphenyl)butyryl)-Phe(4-Cl)-c[D-Cys-Aph(Hor)-D-Aph(Cbm)-Lys-Thr-Cys]-D-Tyr-NH2] ({DOTA}-K(Butanoyl(4-(4-MeO-phenyl)))[Phe(4-Cl)][dC][Phe(4-NH2)](Dihydroorotyl(S))[dPhe(4-NHCONH2)]KTC[dY]-NH2; disulfide 3-8)

- IC50 [1]: 2.7 ± 0.26 nM
SMILES: C[C@@H](O)[C@@H]1NC(=O)[C@H](CCCCN)NC(=O)[C@@H](Cc2ccc(NC(N)=O)cc2)NC(=O)[C@H](Cc2ccc(NC(=O)[C@@H]3CC(=O)NC(=O)N3)cc2)NC(=O)[C@H](NC(=O)[C@H](Cc2ccc(Cl)cc2)NC(=O)CN2CCN(CC(=O)O)CCN(CC(=O)O)CCN(CC(=O)O)CC2)CSSC[C@@H](C(=O)N[C@H](Cc2ccc(O)cc2)C(N)=O)NC1=O [JR11, reference compound] ({DOTA}-[Phe(4-Cl)][dC][Phe(4-NH2)](Dihydroorotyl(S))[dPhe(4-NHCONH2)]KTC[dY]-NH2; disulfide 2-7)

- logD [2]: -2.07 ± 0.02
- remaining at 1 h (Stability in mouse serum; 1 h): 98%
- remaining at 4 h (Stability in mouse serum; 4 h): 97.9%
- remaining at 24 h (Stability in mouse serum; 24 h): 98.5%
- Protein-Bound Fraction (%) (human albumin): 56.3 ± 1.4%
- SPECT quantification, kidneys (K), 4 h ([3]; 4 h post-injection): 14.8 ± 1.2 % ID/mL
- SPECT quantification, kidneys (K), 24 h ([3]; 24 h post-injection): 7.5 ± 0.4 % ID/mL
- SPECT quantification, kidneys (K), 48 h ([3]; 48 h post-injection): 4.3 ± 0.3 % ID/mL
- SPECT quantification, kidneys (K), 72 h ([3]; 72 h post-injection): 3.1 ± 0.5 % ID/mL
- tissue uptake per volume at 4 h (In vivo SPECT/CT imaging): 2.7 ± 0.2 %ID/mL
- tissue uptake per volume at 24 h (In vivo SPECT/CT imaging): 1 ± 0.1 %ID/mL
- tissue uptake per volume at 48 h (In vivo SPECT/CT imaging): 0.8 ± 0.1 %ID/mL
- tissue uptake per volume at 72 h (In vivo SPECT/CT imaging): 0.6 ± 0.1 %ID/mL
- Stability in PBS (%) 1 h (Stability in PBS; 1 h): 97.1%
- Stability in PBS (%) 4 h (Stability in PBS; 4 h): 96.4%
- Stability in PBS (%) 24 h (Stability in PBS; 24 h): 95.4%
SMILES: COc1ccc(CCCC(=O)NCCCC[C@H](NC(=O)CN2CCN(CC(=O)O)CCN(CC(=O)O)CCN(CC(=O)O)CC2)C(=O)N[C@@H](Cc2ccc(Cl)cc2)C(=O)N[C@@H]2CSSC[C@@H](C(=O)N[C@H](Cc3ccc(O)cc3)C(N)=O)NC(=O)[C@H]([C@@H](C)O)NC(=O)[C@H](CCCCN)NC(=O)[C@@H](Cc3ccc(NC(N)=O)cc3)NC(=O)[C@H](Cc3ccc(NC(=O)[C@@H]4CC(=O)NC(=O)N4)cc3)NC2=O)cc1 [[^177Lu]Lu-8b, metal not drawn] ({DOTA}-K(Butanoyl(4-(4-MeO-phenyl)))[Phe(4-Cl)][dC][Phe(4-NH2)](Dihydroorotyl(S))[dPhe(4-NHCONH2)]KTC[dY]-NH2; disulfide 3-8)
